What was measured:
[1] = molecular target: Recombinant human PDE4B (Homo sapiens (Human), UniProt Q07343); test: PDE4B enzyme inhibition, fluorescence polarization (Transcreener AMP2/GMP2); format: biochemical
Experimental: The biological assay was based on fluorescence polarization measurement of AMP/GMP expression, that is, tracing binding of AMP/GMP antibody to indicate the activity of the enzyme.
Buffer solution for the assay: 10 mM trihydroxymethyl aminomethane-hydrochloric acid buffer solution (Tris-HCl) (pH 7.5), 5 mM MgCl2, 0.01% polyoxyethylene lauryl ether (Brij 35), 1 mM dithiothreitol (DTT), and 1% DMSO.
Enzyme: Recombinant human PDE4B (Genebank Accession Number NM_002600; amino acid 305 terminal) was expressed with baculovirus in Sf9 insect cells using N-terminal GST tag. MW=78 kDa.
Enzyme substrate: 1 μM cAMP
Detection: Transcreener® AMP2/GMP2 antibody and AMP2/GMP2 AlexaFluor633 tracing.
• 1. Dissolving the recombinant human PDE4B enzyme and enzyme substrate (1 μM cAMP) in freshly prepared assay buffer, respectively; • 2. Transferring the above PDE4B enzyme buffer solution to reaction wells; • 3. Adding compound 1 dissolved with 100% DMSO to reaction wells with the PDE4B enzyme buffer solution via acoustic technology (echo 550 nanoliter range) and incubating at room temperature for 10 min; • 4. […] The range of fluorescence polarization determination was Ex/Em=620/688. […]
The fluorescence polarization signal was converted into nM based on AMP/GMP standard curve and % enzyme activity calculated by Excel software relative to the DMSO control. […]

[2] = system: lipopolysaccharide (LPS)-induced TNFα production in human peripheral blood mononuclear cells; test: Inhibition of LPS-induced TNFα production in hPBMC (ELISA); format: cell-based
Experimental: Inhibitory activity of compound 1 on lipopolysaccharide (LPS)-induced TNFα production in human peripheral blood mononuclear cells.
PBMC cells were inoculated into a 96-well plate of cell culture grade at a density of 100,000 cells/100 μL/well. The cell culture medium was RPMI-1640 supplemented with 10% serum. The plate was incubated in a 37° C., 5% CO2 incubator for 2 hours. 16.8 μL/well of the assay compound was added to the cells and then the cells were incubated in a 37° C., 5% CO2 incubator for 60 minutes. 16.8 μL/well of LPS was then added to the cells and the cells were incubated in a 37° C., 5% CO2 incubator for 18 hours. The final DMSO concentration was 0.1%.
In the first step, compound 1 was diluted from a stock concentration to 1.5 mM with 100% DMSO. In the second step, the diluted compound was used as the first point and serially diluted 3-fold with 100% DMSO for 9 points. In the third step, the compound was diluted 125-fold with a serum-free medium, at which time the concentration of DMSO was 0.8%. Then 16.8 μL of the compound diluted with the medium was transferred to a 100 μL cell plate.
The compound was added, and then the cell plate was placed in a 37° C., 5% CO2 incubator and incubated for 1 hour.
In the first step, LPS was diluted with ultrapure water to a stock concentration of 1 mg/mL. […]

[3] = system: PMA-induced ear edema in CD-1 mice; test: In vivo model of PMA-induced ear edema in CD-1 mice; conditions: for inhibition rate of ear edema / inhibition rate of ear weight gain: application BID, 10 hours after PMA induction
Experimental: 1 mL of acetone was added to completely dissolve 1 mg of PMA, and then 800 μL of mother liquor was pipetted and added to 2400 μL of acetone to prepare 0.25 mg/mL PMA.
CD-1 mice were sorted according to ear thickness and body weight. […] 10 μL of PMA with a concentration of 0.25 mg/mL was applied to the front and back sides of the right ear of each mouse.
The mice in the first group were normal mice, and these mice will not be treated in any way; the mice in the second group were given a vehicle; and the mice in the third group, the fourth group, and the fifth group were given compound 1 at a dose of 0.1 mg/ear, 0.3 mg/ear, and 1 mg/ear, respectively. Drugs were applied to the right ear of the mice 30 minutes before and 15 minutes after PMA induction, respectively.
Measurement and sampling: Ten hours after PMA induction, the mice were anesthetized and the thickness of the right ear was measured. After measuring the thickness of the right ear, the mouse was immediately euthanized, and the ear piece was collected and weighed.
The assay data was expressed as mean±standard error of mean (Mean±SEM), and the degree of ear swelling and ear weight were analyzed by one-way analysis of variance (One-way ANOVA), wherein p<0.05 was considered a significant difference.

Chain of Recombinant human PDE4B (Q07343 305-736 limits assumed): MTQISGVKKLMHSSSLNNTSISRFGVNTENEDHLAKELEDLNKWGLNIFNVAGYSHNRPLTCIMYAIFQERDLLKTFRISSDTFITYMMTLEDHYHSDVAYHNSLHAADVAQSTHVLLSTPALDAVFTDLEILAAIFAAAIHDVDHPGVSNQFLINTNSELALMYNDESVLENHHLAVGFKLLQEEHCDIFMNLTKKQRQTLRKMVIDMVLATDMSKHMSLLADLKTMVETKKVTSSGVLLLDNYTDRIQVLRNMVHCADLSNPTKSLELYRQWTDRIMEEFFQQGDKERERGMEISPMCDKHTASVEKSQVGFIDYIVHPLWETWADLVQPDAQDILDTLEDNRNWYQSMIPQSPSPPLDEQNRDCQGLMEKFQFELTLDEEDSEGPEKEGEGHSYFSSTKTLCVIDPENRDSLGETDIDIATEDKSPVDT

Question: What does the source list for `CCOc1cc([C@@H](CS(C)(=O)=O)n2c(=O)[nH]c3cc(F)ccc32)ccc1OC` [Compound 1]?
Answer: in vitro activity of inhibiting PDE4B (in words) [1]: excellent in vitro activity; IC50 ([1]; PDE4B, 1 μM cAMP substrate, average in triplicate): 0.0262 µM; in vitro activity of inhibiting TNFα production in hPBMC (in words) [2]: excellent in vitro activity; IC50 ([2]; Homo sapiens, PBMC, TNFα production in hPBMC, LPS 18 hours, average in triplicate): 0.0639 µM; inhibition rate of ear edema ([3]; 0.1 mg/ear): 22%; inhibition rate of ear weight gain ([3]; 0.1 mg/ear): 39%; inhibition rate of ear edema ([3]; 0.3 mg/ear): 39%; inhibition rate of ear weight gain ([3]; 0.3 mg/ear): 46%; inhibition rate of ear edema ([3]; 1 mg/ear): 88%; inhibition rate of ear weight gain ([3]; 1 mg/ear): 85%; effect on the symptoms of PMA-induced ear edema (in words) ([3]; three dose groups of 0.1, 0.3 and 1 mg/ear): significant improvement effect

— patent US12338218B2, “Crystal form of benzimidazole-2-one compound, solvate thereof, crystal form of solvate thereof, and preparation method thereof” (MEDSHINE DISCOVERY INC., priority 2019, dated 2025)
